Article PMC12472494, “Anticonvulsant Potential of 1-Aryl-6,7-dimethoxy-1,2,3,4-tetrahydroisoquinolines: Insights from Strychnine and Nicotine Models in In Vivo and In Silico Studies” (Pharmaceuticals, 2025)
Where “and” joins values, the source holds several entries; their conditions need not be identical. Equal values may be shown once.

Tests used:
[1] = test system: strychnine-induced seizures; test: Strychnine-induced seizure model; type: in vivo, mice; conditions: oral dose 1.0 mg/kg 60 min before strychnine 1.5 mg/kg s.c., N = 10; for responders at 1 mg/kg: Mus musculus, read-out: Survival Rate; for Duration of Tremor and Seizures / Latency to Tremor and Seizure Onset: mean ± SD
From the text: (§1) The anticonvulsant effects of the examined substances were studied in male white mice weighing 18–22 g, divided into the following groups: control (including the strychnine and nicotine groups), carbamazepine group, Convulex group, and experimental groups (one for each tested substance). Simple randomization (“heads or tails” coin toss) was used to assign animals to groups. Each group contained 10 animals. Healthy animals were included in the experiments after a 14-day quarantine period. No animals were excluded from the study. Convulsant agents were administered subcutaneously at doses of 10.0 mg/kg for nicotine (Sigma–Aldrich, Saint Louis, MO, USA) and 1.5 mg/kg for strychnine (Sigma–Aldrich, Saint Louis, MO, USA), 60 min after the oral administration of the test substances at doses ranging from 0.1 to 10 mg/kg. The onset time, duration of tremors and seizures, and survival rate of the animals were recorded. Carbamazepine (Darnitsa, Kiev, Ukraine) at doses of 5.0–10.0 mg/kg and Convulex (valproate) (Gerot Pharmazeutika GmbH, Vienna, Austria) at doses of 75.0–100.0 mg/kg (based on the therapeutic anticonvulsant dose) were used as reference drugs.
(§2) Data were presented as mean ± SD for different groups. Statistical analysis was performed using OriginPro 9.0 (MicroCal Software, Northampton, MA, USA), with p < 0.05 considered statistically significant.

[2] = test system: tremorogenic and convulsive actions of nicotine; test: Nicotine-induced tremor and seizure model; type: in vivo, mice; conditions: for responders at 1 mg/kg: Mus musculus, po, read-out: Survival Rate; for survival rate of the animals increased to: at low doses (0.1–5 mg/kg); for activity against tremorogenic and convulsive actions of nicotine versus reference drugs (in words): doses of 0.1–5 mg/kg; for Duration of Seizures / Latency to Seizure Onset: oral dose 1.0 mg/kg 60 min before nicotine 10 mg/kg s.c., mean ± SD, N = 10; for survival of poisoned animals compared to carbamazepine and valproate (in words): mouse, in vivo
From the text: as §1, §2

[3] = parameters: method as in PMID 36677539; conditions: per os; cited from earlier work

| SMILES | responders at 1 mg/kg [1] | Duration of Tremor and Seizures [1] | Latency to Tremor and Seizure Onset [1] | responders at 1 mg/kg [2] | survival rate of the animals increased to [2] | activity against tremorogenic and convulsive actions of nicotine versus reference drugs (in words) [2] | Duration of Seizures [2] | Latency to Seizure Onset [2] | LD50 [3] | survival of poisoned animals compared to carbamazepine and valproate (in words) [2] |
| --- | --- | --- | --- | --- | --- | --- | --- | --- | --- | --- |
| COc1cc2c(cc1OC)C(c1cccc(Br)c1)NCC2 (stereo not drawn) [Compound 14, 1-(3′-Bromophenyl)-6,7-dimethoxy-1,2,3,4-tetrahydroisoquinoline] | 60% | 0.35 ± 0.8 min | 18.5 ± 1.5 min | 90% | 90–100% | comparable activity to the reference drugs | 2.5 ± 0.4 min | 2.8 ± 0.02 min | 446.7 (416.2 ± 471.3) mg/kg | – |
| COc1cc2c(cc1OC)C(c1cccc([N+](=O)[O-])c1)NCC2 (stereo not drawn) [Compound 8, 1-(3′-Nitrophenyl)-6,7-dimethoxy-1,2,3,4-tetrahydroisoquinoline] | 40% | 0.56 ± 0.4 min | 15.9 ± 1.7 min | 90% | 90–100% | comparable activity to the reference drugs | 15.5 ± 0.3 min | 2.3 ± 0.08 min | 531.4 (501.3 ± 554.1) mg/kg | – |
| COc1cc2c(cc1OC)C(c1ccc(N)cc1)NCC2 (stereo not drawn) [Compound 34, 1-(4′-Aminophenyl)-6,7-dimethoxy-1,2,3,4-tetrahydroisoquinoline] | 40% | 0.34 ± 0.7 min | 15.5 ± 1.8 min | 90% | 90–100% | comparable activity to the reference drugs | 10.2 ± 0.7 min | 2.2 ± 0.04 min | 1043.2 (993.3 ± 1082.6) mg/kg | – |
| COc1cc(Br)c(C2NCCc3cc(OC)c(OC)cc32)cc1O (stereo not drawn) [Compound 24, 1-(2′-Bromo-4′-methoxy-5′-hydroxyphenyl)-6,7-dimethoxy-1,2,3,4-tetrahydroisoquinoline] | 30% | 0.32 ± 0.4 min | 10.2 ± 1.2 min | 70% | – | – | 7.3 ± 0.3 min | 2.1 ± 0.09 min | 546.9 (516.3 ± 571.6) mg/kg | did not improve the survival |
| COc1cc2c(cc1OC)C(c1cc3c(cc1Cl)OCO3)NCC2 (stereo not drawn) [Compound 31, 1-(4′,5′-Methylenedioxy-2′-chlorophenyl)-6,7-dimethoxy-1,2,3,4-tetrahydroisoquinoline] | 30% | 0.59 ± 0.5 min | 13.6 ± 1.9 min | 90% | 90–100% | comparable activity to the reference drugs | 10.7 ± 0.9 min | 2.3 ± 0.08 min | 520.8 (491.9 ± 545.4) mg/kg | – |
| COc1cc2c(cc1OC)C(c1ccc(N(C)C)cc1)NCC2 (stereo not drawn) [Compound 16, 1-(4′-Dimethylaminophenyl)-6,7-dimethoxy-1,2,3,4-tetrahydroisoquinoline] | 50% | 0.31 ± 0.6 min | 13.1 ± 1.5 min | 90% | 90–100% | comparable activity to the reference drugs | 8.5 ± 0.7 min | 2.7 ± 0.08 min | 498.3 (471.6 ± 524.6) mg/kg | – |
| COc1cc2c(cc1OC)C(c1ccc(OC)c(O)c1Br)NCC2 (stereo not drawn) [Compound 27, 1-(2′-Bromo-3′-hydroxy-4′-methoxyphenyl)-6,7-dimethoxy-1,2,3,4-tetrahydroisoquinoline] | 40% | 0.53 ± 0.3 min | 10.5 ± 1.5 min | 90% | 90–100% | comparable activity to the reference drugs | 9.7 ± 0.9 min | 2.2 ± 0.02 min | 4700 mg/kg and 4937 mg/kg and 4937.4 (4827.7 ± 5084.9) mg/kg | did not improve the survival |
| COc1cc2c(cc1OC)C(c1ccccc1N)NCC2 (stereo not drawn) [Compound 32, 1-(2′-Aminophenyl)-6,7-dimethoxy-1,2,3,4-tetrahydroisoquinoline] | 50% | 0.34 ± 0.4 min | 18.2 ± 1.7 min | 60% | – | – | 12.2 ± 0.8 min | 1.8 ± 0.06 min | 366.3 (326.3 ± 395.6) mg/kg | – |
| COc1cc(C2NCCc3cc(OC)c(OC)cc32)ccc1O (stereo not drawn) [Compound 21, 1-(4′-Hydroxy-3′-methoxyphenyl)-6,7-dimethoxy-1,2,3,4-tetrahydroisoquinoline] | 40% | 0.52 ± 0.4 min | 15.4 ± 1.5 min | 60% | – | – | 14.3 ± 0.6 min | 1.8 ± 0.04 min | 1663.6 (1623.1 ± 1629.1) mg/kg | – |
| COc1ccc(C2NCCc3cc(OC)c(OC)cc32)cc1Br (stereo not drawn) [Compound 19, 1-(3′-Bromo-4′-methoxyphenyl)-6,7-dimethoxy-1,2,3,4-tetrahydroisoquinoline] | 40% | 0.59 ± 0.9 min | 16.0 ± 1.4 min | 80% | – | – | 19.0 ± 0.8 min | 1.8 ± 0.07 min | 327.9 (287.1 ± 363.8) mg/kg | – |
| COc1cc2c(cc1OC)C(c1cc(Br)ccc1O)NCC2 (stereo not drawn) [Compound 17, 1-(2′-Hydroxy-5′-bromophenyl)-6,7-dimethoxy-1,2,3,4-tetrahydroisoquinoline] | 40% | 0.61 ± 0.5 min | 15.7 ± 1.6 min | 70% | – | – | 8.1 ± 0.8 min | 2.1 ± 0.07 min | 297.3 (270.2 ± 323.7) mg/kg | – |
| COc1cc2c(cc1OC)C(c1ccc([N+](=O)[O-])cc1)NCC2 (stereo not drawn) [Compound 9, 1-(4′-Nitrophenyl)-6,7-dimethoxy-1,2,3,4-tetrahydroisoquinoline] | 40% | 0.51 ± 0.5 min | 13.5 ± 1.9 min | 90% | – | – | 16.7 ± 0.4 min | 2.5 ± 0.03 min | 1898.8 (703.5 ± 2273.4) mg/kg | – |
| COc1cc2c(cc1OC)C(c1ccc(O)cc1)NCC2 (stereo not drawn) [Compound 4, 1-(4′-Hydroxyphenyl)-6,7-dimethoxy-1,2,3,4-tetrahydroisoquinoline] | 70% | 0.57 ± 0.7 min | 14.2 ± 1.8 min | 60% | – | – | 10.5 ± 0.8 min | 1.8 ± 0.05 min | 924.2 (893.9 ± 953.9) mg/kg | – |
| COc1cc2c(cc1OC)C(c1ccccc1)NCC2 (stereo not drawn) [Compound 2, 1-Phenyl-6,7-dimethoxy-1,2,3,4-tetrahydroisoquinoline] | 60% | 0.43 ± 0.9 min | 14.1 ± 1.5 min | 70% | – | – | 3.2 ± 0.6 min | 3.2 ± 0.07 min | 273.2 (249.7 ± 296.7) mg/kg | – |
| COc1cc2c(cc1OC)C(c1cccc(OC)c1[N+](=O)[O-])NCC2 (stereo not drawn) [Compound 23, 1-(3′-Methoxy-2′-nitrophenyl)-6,7-dimethoxy-1,2,3,4-tetrahydroisoquinoline] | 30% | 0.60 ± 0.4 min | 14.6 ± 1.4 min | 20% | – | – | 5.4 ± 0.9 min | 1.5 ± 0.08 min | 315.4 (281.0 ± 344.2) mg/kg | – |
| COc1ccc(C2NCCc3cc(OC)c(OC)cc32)cc1 (stereo not drawn) [Compound 5, 1-(4′-Methoxyphenyl)-6,7-dimethoxy-1,2,3,4-tetrahydroisoquinoline] | 60% | 0.54 ± 0.7 min | 16.5 ± 1.8 min | 80% | – | – | 10.3 ± 0.6 min | 2.1 ± 0.09 min | 1040.3 (986.0 ± 1079.8) mg/kg | – |
